From patent publication US9999616B2 (ZENITH EPIGENETICS LTD., priority 2013, dated 2018)

Columns and labels:
[1] = system: Bcl2 and c-myc gene expression; assay: Evaluation of target engagement: Bcl2 and c-myc gene expression in MV4-11 and MM1.s xenograft tumors; assay type: in vivo, mouse; conditions: oral dose, tumors harvested 3, 6, 12, 24 hrs post dose for Bcl2 and c-myc gene expression as PD biomarkers
Description: MV4-11 and MM1.s cells (ATCC) are grown under standard cell culture conditions and (NCr) nu/nu fisol strain of female mice age 6-7 weeks are injected with 5×10^6 cells/animal in 100 μL PBS+100 μL Matrigel in the lower left abdominal flank. By approximately day 28 after MV4-11 and MM1.s cells injection, mice are randomized based on tumor volume (L×W×H)/2) of average ˜500 mm^3. Mice are dosed orally with compound in EA006 formulation at 10 mL/kg body weight dose volume and tumors harvested 3, 6, 12, 24 hrs post dose for Bcl2 and c-myc gene expression analysis as PD biomarkers.

[2] = system: IL-6 and IL-17 and MCP-1 cytokines; assay: In vivo efficacy in mouse endotoxemia model; conditions: C57/Bl6 mice, 75 mg/kg oral, LPS 0.5 mg/kg i.p.
Description: Sub lethal doses of Endotoxin (E. Coli bacterial lipopolysaccharide) are administered to animals to produce a generalized inflammatory response which is monitored by increases in secreted cytokines. Compounds are administered to C57/Bl6 mice at T=4 hours orally at 75 mg/kg dose to evaluate inhibition in IL-6 and IL-17 and MCP-1 cytokines post 3-h challenge with lipopolysaccharide (LPS) at T=0 hours at 0.5 mg/kg dose intraperitoneally.

Structure (SMILES): Cc1noc(C)c1-c1cc(-c2c(C)noc2C)c2nc[nH]c2c1 [Example Compound 1, 4,4′-(1H-benzo[d]imidazole-4,6-diyl)bis(3,5-dimethylisoxazole)]
- In vivo activity [1]: Active
- In vivo activity [2]: Active
